From patent US20230295109A1, “PYRIDINONE COMPOUNDS FOR THE TREATMENT OF AUTOIMMUNE DISEASE” (F. Hoffmann-La Roche AG, priority 2020, published 2023) come the findings set out here.

The nature of the series: Parallel Artificial Membrane Permeability Assay (PAMPA). In kind it is in vitro ADME. The note with it: for Membrane Retention / Papp at 4 h: PAMPA; for Membrane Retention: pH 7.40, 4 hours; for Papp at 4 h: pH 7.4, pH 7.40, room temperature, read-out: PAMPA Pe; for PAMPA category: class from Pe and membrane retention. As to the method:
PAMPA (Parallel Artificial Membrane Permeability Assay) is a first-line permeability screen for drug candidates. This assay mimics the transcellular absorption conditions using an artificial phospholipid membrane and generates a permeability value that can be used for compound ranking and optimization as well as input parameters for in silico models to predict intestinal absorption.
Permeation experiments are carried out in hydrophobic PVDF 96-well microtiter filter plates (MultiScreen Filter Plate, Millipore, #MAIPN4550). Each well is coated with PVDF membrane, which is prepared with 5 µL Dodecane (Sigma, D221104) that contains 1% lecithin (Sigma, P3556-1G).
The typical PAMPA experimental protocol is as follows: The donor plate is placed on a Teflon acceptor plate that has been pre-filled with 150 µL of 100 mM PBS buffer (2.6 g KH2PO4 and 18.5 g K2HPO4.3H2O are dissolved in about 1000 mL of ultra-pure water and mixed thoroughly. The pH is adjusted to 7.40 ± 0.05, using either 1 M sodium hydroxide or 1 M hydrochloric acid.) containing 5% DMSO. The filter on the bottom of each acceptor well is filled with 300 µL of 100 mM PBS buffer (2.6 g KH2PO4 and 18.5 g K2HPO4.3H2O are dissolved in about 1000 mL of ultra-pure water, mixed thoroughly. The pH was adjusted to 7.40 ± 0.05, using either 1 M sodium hydroxide or 1 M hydrochloric acid.). The resulting sandwich is incubated at room temperature under constant shaking (300 rpm) for 4 hours. The sandwich is then disassembled. Before incubation, spike 20 µL dosing solution and mix with 250 µL PBS and 130 µL quench solution (acetonitrile) as T0 sample. After incubation, collect 270 µL solutions from acceptor chamber, followed by the addition of 130 µL acetonitrile. Collect 20 µL solution from donor chamber and add 250 µL PBS and 130 µL acetonitrile. The concentration of compound in all samples are determined by LC-MS/MS and the equations for determining the permeability (Pe, 10^-6 cm/s ) are as follows.
VD is the volume of the donor well; VR is the volume of the acceptor well; Area is the active surface area of membrane; Time is the incubation time (14,400 s in this assay); CR and CD are the concentrations of compound in acceptor and donor solutions, respectively, at the completion of the assay; C0 is the concentration of compound in donor solution before incubation.
The main readout of the PAMPA assay is the permeability value Pe expressed in 10^-6 cm/s. Secondary readouts determined are the amounts of compound in the donor and acceptor compartments as well as compound retention in the membrane. Depending on the permeation rate and the membrane retention, compounds are classified as “low” (Pe < 0.2 and membrane retention <20%) or “medium & high” (Pe >= 0.2; or Pe < 0.2 and membrane retention >= 20%). Each sample is measured in triplicate; the standard deviation is determined for the permeation constant Pe.
(In general: PAMPA measures passive passage across an artificial lipid membrane.)

With `Cc1cc(-c2ccc(N3CCN(Cc4ccc(N5CCNCC5)cc4)CC3)nc2C(F)F)cn(C)c1=O` [Example 17, 5-[2-(difluoromethyl)-6-[4-[(4-piperazin-1-ylphenyl)methyl]piperazin-1-yl]-3-pyridyl]-1,3-dimethyl-pyridin-2-one], the “Membrane Retention” value worked out at 50.950%; the Papp at 4 h is 1.5 ×10⁻⁶ cm/s; the PAMPA category result is “medium & high (“medium & high” (Pe >= 0.2; or Pe < 0.2 and membrane retention >= 20%))”.

In the case of `CCc1nc(N2CCN(Cc3cnc(N4CCOC[C@@H](N)C4)nc3)CC2)ccc1-c1cc(C)c(=O)n(C)c1` [Example 4, 5-[6-[4-[[2-[(6S)-6-amino-1,4-oxazepan-4-yl]pyrimidin-5-yl]methyl]piperazin-1-yl]-2-ethyl-3-pyridyl]-1,3-dimethyl-pyridin-2-one], the “Membrane Retention” value is on record as 15.690%; the Papp at 4 h was 0.75 ×10⁻⁶ cm/s; the PAMPA category entry is “medium & high (“medium & high” (Pe >= 0.2; or Pe < 0.2 and membrane retention >= 20%))”.

`Cc1cc(-c2ccc(N3CCN(Cc4ccc(N5CCNCC5)cn4)CC3)nc2C(C)C)cn(C)c1=O` [Example 7, 5-[2-isopropyl-6-[4-[(5-piperazin-1-yl-2-pyridyl)methyl]piperazin-1-yl]-3-pyridyl]-1,3-dimethyl-pyridin-2-one]: the “Membrane Retention” value was 2.530%; the Papp at 4 h is 0.74 ×10⁻⁶ cm/s; the PAMPA category result was “medium & high (“medium & high” (Pe >= 0.2; or Pe < 0.2 and membrane retention >= 20%))”.

Regarding `Cc1cc(-c2ccc(N3CCC(N4CCNCC4)CC3)nc2C(C)C)cn(C)c1=O` [Example 18, 5-[2-isopropyl-6-(4-piperazin-1-yl-1-piperidyl)-3-pyridyl]-1,3-dimethyl-pyridin-2-one], the “Membrane Retention” value is reported as 8.650%; the Papp at 4 h is 0.74 ×10⁻⁶ cm/s; the PAMPA category entry was “medium & high (“medium & high” (Pe >= 0.2; or Pe < 0.2 and membrane retention >= 20%))”.

As to `CCc1nc(N2CCN(Cc3cnc(N4CC5(CNCCO5)C4)nc3)CC2)ccc1-c1cc(C)c(=O)n(C)c1` [Example 1, 5-[2-ethyl-6-[4-[[2-(5-oxa-2,8-diazaspiro[3.5]nonan-2-yl)pyrimidin-5-yl]methyl]piperazin-1-yl]-3-pyridyl]-1,3-dimethyl-pyridin-2-one], the “Membrane Retention” value was -11.520%; the Papp at 4 h came to 0.57 ×10⁻⁶ cm/s; the PAMPA category entry was “medium & high (“medium & high” (Pe >= 0.2; or Pe < 0.2 and membrane retention >= 20%))”.

With `Cc1cc(-c2ccc(N3CCN(Cc4cccc(N5CCNCC5)c4)CC3)nc2C(C)C)cn(C)c1=O` [Example 14, 5-[2-isopropyl-6-[4-[(3-piperazin-1-ylphenyl)methyl]piperazin-1-yl]-3-pyridyl]-1,3-dimethyl-pyridin-2-one], the “Membrane Retention” value amounted to 38.020%; the Papp at 4 h came to 0.54 ×10⁻⁶ cm/s; the PAMPA category result is “medium & high (“medium & high” (Pe >= 0.2; or Pe < 0.2 and membrane retention >= 20%))”.

In the case of `Cc1cc(-c2ccc(N3CCN4CCN(c5ccc(N6CCNCC6)nc5)CC4C3)nc2C(C)C)cn(C)c1=O` (stereo not drawn) [Example 16, 5-[2-isopropyl-6-[8-(6-piperazin-1-yl-3-pyridyl)-3,4,6,7,9,9a-hexahydro-1H-pyrazino[1,2-a]pyrazin-2-yl]-3-pyridyl]-1,3-dimethyl-pyridin-2-one], the “Membrane Retention” value is reported as 30.770%; the Papp at 4 h is 0.24 ×10⁻⁶ cm/s; the PAMPA category result was “medium & high (“medium & high” (Pe >= 0.2; or Pe < 0.2 and membrane retention >= 20%))”.

With `Cc1cc(-c2ccc(N3CCN(Cc4cnc(N5CCNCC5)nc4)CC3)nc2C(C)C)cn(C)c1=O` [Example 9, 5-[2-isopropyl-6-[4-[(2-piperazin-1-ylpyrimidin-5-yl)methyl]piperazin-1-yl]-3-pyridyl]-1,3-dimethyl-pyridin-2-one], the “Membrane Retention” value stood at 27.230%; the Papp at 4 h was found to be 0.78 ×10⁻⁶ cm/s; the PAMPA category entry is “medium & high (“medium & high” (Pe >= 0.2; or Pe < 0.2 and membrane retention >= 20%))”.

As for `Cc1cc(-c2ccc(N3CCN(Cc4ccc(N5CCNCC5)cc4)CC3)nc2C(C)C)cn(C)c1=O` [Example 13, 5-[2-isopropyl-6-[4-[(4-piperazin-1-ylphenyl)methyl]piperazin-1-yl]-3-pyridyl]-1,3-dimethyl-pyridin-2-one], the “Membrane Retention” value worked out at 56.550%; the Papp at 4 h was determined as 0.46 ×10⁻⁶ cm/s; the PAMPA category entry is “medium & high (“medium & high” (Pe >= 0.2; or Pe < 0.2 and membrane retention >= 20%))”.

Turning to `Cc1cc(-c2ccc(N3CCN(Cc4ccc(N5CCNCC5)nc4)CC3)nc2C(C)C)cn(C)c1=O` [Example 11, 5-[2-isopropyl-6-[4-[(6-piperazin-1-yl-3-pyridyl)methyl]piperazin-1-yl]-3-pyridyl]-1,3-dimethyl-pyridin-2-one], the “Membrane Retention” value is on record as 24.900%; the Papp at 4 h worked out at 0.6 ×10⁻⁶ cm/s; the PAMPA category entry is “medium & high (“medium & high” (Pe >= 0.2; or Pe < 0.2 and membrane retention >= 20%))”.

For the compound `Cc1cc(-c2ccc(N3CCN(Cc4cnc(N5CC(C)(N)C5)nc4)CC3)nc2C(C)C)cn(C)c1=O` [Example 10, 5-[6-[4-[[2-(3-amino-3-methyl-azetidin-1-yl)pyrimidin-5-yl]methyl]piperazin-1-yl]-2-isopropyl-3-pyridyl]-1,3-dimethyl-pyridin-2-one], the “Membrane Retention” value is given as 7.250%; the Papp at 4 h turned out to be 0.6 ×10⁻⁶ cm/s; the PAMPA category entry is “medium & high (“medium & high” (Pe >= 0.2; or Pe < 0.2 and membrane retention >= 20%))”.
